Legend:
diabetic mice = settings: cited from earlier work
BiP, GRP94 and CHOP = assay: Western blot of ER stress markers in islets in culture; assay type: cell-based, mouse; settings: islets exposed to increasing amounts of iron citrate alone (FIG. 12A)
Method: (§1) Western Blotting. The mouse islets were treated with CPX 20 μM for 24 h and lysed in RIPA buffer [50 mM Tris, pH 7.2; 150 mM NaCl; 1% sodium deoxycholate; 0.1% SDS; 1% Triton-X 100; 10 mM NaF; 1 mM Na3VO4; protease inhibitor cocktail (1:1000, Sigma, St. Louis, Mo.)] and were subjected to immunoblot analysis by standard methods. Proteins were resolved on a 10% SDS-PAGE and transferred to a nitrocellulose membrane (Bio-Rad, Hercules, Calif.). Membranes were probed overnight with GADD153 (F-168), sc-575 from Santa Cruz Biotechnology (1:50); p21 (F-5), sc-6246 from Santa Cruz Biotechnology (1:200); actin, clone C4 MAB1501 from Millipore (Billerica, Mass., USA) (1:2000); BiP antibody (cat. no. 3183) from Cell Signaling (Danvers, Mass., USA) (1:1000); GRP94 antibody (H-212), sc-11402 from Santa Cruz Biotechnology (1:500); insulin rabbit polyclonal H-86, sc-9168 from Santa Cruz Biotechnology (1:500) antibodies followed by incubation with horseradish peroxidase-conjugated (HRP) anti-mouse (1:10000), goat anti-rabbit IgG (1:10000, Santa Cruz biotechnology Inc., Santa Cruz, Calif., USA) for 1 hr. After incubation with enhanced chemiluminescence reagents (Santa Cruz biotechnology Inc.), membranes were analyzed using an Image J software for Windows.
(§2) In order to understand better how CPX operates in β cells, it was tested to determine if it affected the efficiency by which insulin is produced following glucose stimulation. […] In view of the antidiabetic activity of CPX in vivo, the inhibition of insulin release appears contradictory. […]
(§3) While modulation of insulin release by CPX constitutes a challenging mechanism by which CPX may affect ER stress, how CPX regulates insulin expression remains obscure. […] To test this hypothesis, islets were exposed to iron citrate, alone or combined with CPX, and the levels were recorded of chaperones BiP, GRP94 and CHOP, as well as of insulin.

insulin = assay: Western blot of insulin levels in islets in culture; assay type: cell-based, mouse; settings: islets exposed to increasing amounts of iron citrate alone (FIG. 12A)
Method: as §1, §2, §3

## COc1ccc(C2=N[C@@H](c3ccc(Cl)cc3)[C@@H](c3ccc(Cl)cc3)N2C(=O)N2CCNC(=O)C2)c(OC(C)C)c1 [nutlin-3a]
Diabetic mice; mice, stimulation of p53/p21 activity
  effect on diabetes: beneficial for diabetes in mice
Diabetic mice; p21-deficient diabetic mice
  response of diabetes to treatment: unresponsive to nutlin-3a

## iron citrate
BiP, GRP94 and CHOP
  ER stress-markers BiP, GRP94 and CHOP: induced ER stress-markers BiP, GRP94 and CHOP
insulin
  insulin production: triggered insulin production
